PubChem BioAssay AID1918999 (Molecular Pharmacology Branch, DTP, NCI, 2023)

Tested on: 556581-035-R-J1-PDC complex spheroid growth
Test: Anticancer human tumor 556581-035-R-J1-PDC patient-derived ovarian carcinoma cell line growth inhibition [AhR]
Details: for IC50: curve of first compound; for viability, T/C: stronger effect = lower value
How it was run: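 Spheroids combined tumor cells with HUVEC endothelial cells and human MSCs as stroma. AhR antagonists were paired with standard or investigational drugs, each dosed in half-log steps down from near clinical Cmax, or from 10 microM where Cmax was unknown.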

[1] = second compound 0.1 µM, first compound 0.0316 µM
[2] = second compound 0.1 µM, first compound 0.1 µM
[3] = second compound 0.1 µM, first compound 0.316 µM
[4] = second compound 0.1 µM, first compound 1 µM
[5] = second compound 0.1 µM, first compound 3.16 µM
[6] = second compound 0.1 µM, first compound 10 µM
[7] = second compound 0.316 µM, first compound 0.0316 µM
[8] = second compound 0.316 µM, first compound 0.1 µM
[9] = second compound 0.316 µM, first compound 0.316 µM
[10] = second compound 0.316 µM, first compound 1 µM
[11] = second compound 0.316 µM, first compound 3.16 µM
[12] = second compound 0.316 µM, first compound 10 µM
[13] = second compound 1 µM, first compound 0.0316 µM
[14] = second compound 1 µM, first compound 0.1 µM
[15] = second compound 1 µM, first compound 0.316 µM
[16] = second compound 1 µM, first compound 1 µM
[17] = second compound 1 µM, first compound 3.16 µM
[18] = second compound 1 µM, first compound 10 µM
[19] = second compound 3.16 µM, first compound 0.0316 µM
[20] = second compound 3.16 µM, first compound 0.1 µM
[21] = second compound 3.16 µM, first compound 0.316 µM
[22] = second compound 3.16 µM, first compound 1 µM
[23] = second compound 3.16 µM, first compound 3.16 µM
[24] = second compound 3.16 µM, first compound 10 µM
[25] = second compound 10 µM, first compound 0.0316 µM
[26] = second compound 10 µM, first compound 0.1 µM
[27] = second compound 10 µM, first compound 0.316 µM
[28] = second compound 10 µM, first compound 1 µM
[29] = second compound 10 µM, first compound 3.16 µM
[30] = second compound 10 µM, first compound 10 µM
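For viability, T/C in this document: compound exposure lasted 7 days; 100% = DMSO vehicle control growth.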

Row | Structure (SMILES) | IC50 (second compound 0.1 µM) [nM] | IC50 (second compound 0.316 µM) [nM] | IC50 (second compound 1 µM) [nM] | IC50 (second compound 3.16 µM) [nM] | IC50 (second compound 10 µM) [nM] | viability, T/C [1] [%] | viability, T/C [2] [%] | viability, T/C [3] [%] | viability, T/C [4] [%] | viability, T/C [5] [%] | viability, T/C [6] [%] | viability, T/C [7] [%] | viability, T/C [8] [%] | viability, T/C [9] [%] | viability, T/C [13] [%] | viability, T/C [14] [%] | viability, T/C [19] [%] | viability, T/C [20] [%] | viability, T/C [25] [%] | viability, T/C [26] [%] | also measured
1 | COc1cc(Nc2ncc3c(n2)-c2ccc(Cl)cc2C(c2c(F)cccc2OC)=NC3)ccc1C(=O)O + Cc1ccccc1N=Nc1ccc(NC(=O)c2ccnn2C)c(C)c1 | > 10000 | > 10000 | > 10000 | > 10000 | > 10000 | 83.8 | 72.4 | 69.2 | 61.4 | 60.4 | 59.4 | 78 | 73.5 | 68.5 | 80.5 | 73.2 | 67.2 | 66.2 | 70.2 | 61.9 | viability, T/C [10]: 56.6%; viability, T/C [11]: 61.1%; viability, T/C [12]: 48.7%; viability, T/C [15]: 69%; viability, T/C [16]: 62.8%; viability, T/C [17]: 64.7%; viability, T/C [18]: 54.9%; viability, T/C [21]: 57.6%; viability, T/C [22]: 58.1%; viability, T/C [23]: 58.6%; viability, T/C [24]: 49.2%; viability, T/C [27]: 62.1%; viability, T/C [28]: 66%; viability, T/C [29]: 57.6%; viability, T/C [30]: 56.8%
2 | Cn1ncnc1C1c2n[nH]c(=O)c3cc(F)cc(c23)NC1c1ccc(F)cc1 (stereo not given) + Cc1ccccc1N=Nc1ccc(NC(=O)c2ccnn2C)c(C)c1 | > 100 | > 100 | > 100 | > 100 | > 100 | 94.9 | 97.4 | – | – | – | – | 104 | 94.3 | – | 97.8 | 105 | 104 | 111 | 93.8 | 92.3 | viability, T/C (second compound 0.1 µM, first compound 0.000316 µM): 102%; viability, T/C (second compound 0.1 µM, first compound 0.001 µM): 112%; viability, T/C (second compound 0.1 µM, first compound 0.00316 µM): 103%; viability, T/C (second compound 0.1 µM, first compound 0.01 µM): 105%; viability, T/C (second compound 0.316 µM, first compound 0.000316 µM): 112%; viability, T/C (second compound 0.316 µM, first compound 0.001 µM): 114%; viability, T/C (second compound 0.316 µM, first compound 0.00316 µM): 113%; viability, T/C (second compound 0.316 µM, first compound 0.01 µM): 103%; viability, T/C (second compound 1 µM, first compound 0.000316 µM): 116%; viability, T/C (second compound 1 µM, first compound 0.001 µM): 99.6%; viability, T/C (second compound 1 µM, first compound 0.00316 µM): 109%; viability, T/C (second compound 1 µM, first compound 0.01 µM): 100%; viability, T/C (second compound 3.16 µM, first compound 0.000316 µM): 110%; viability, T/C (second compound 3.16 µM, first compound 0.001 µM): 101%; viability, T/C (second compound 3.16 µM, first compound 0.00316 µM): 94.6%; viability, T/C (second compound 3.16 µM, first compound 0.01 µM): 96.5%; viability, T/C (second compound 10 µM, first compound 0.000316 µM): 92.2%; viability, T/C (second compound 10 µM, first compound 0.001 µM): 108%; viability, T/C (second compound 10 µM, first compound 0.00316 µM): 89.8%; viability, T/C (second compound 10 µM, first compound 0.01 µM): 98.8%
3 | NS(=O)(=O)OCC1CC(n2ccc3c(NC4CCc5ccccc54)ncnc32)CC1O (stereo not given) + Cc1ccccc1N=Nc1ccc(NC(=O)c2ccnn2C)c(C)c1 | > 10000 | > 10000 | > 10000 | > 10000 | > 10000 | 101 | 103 | 103 | 108 | 106 | 82.2 | 105 | 104 | 97.2 | 92.9 | 102 | 97.1 | 96.5 | 91.3 | 80 | viability, T/C [10]: 103%; viability, T/C [11]: 93.9%; viability, T/C [12]: 80.2%; viability, T/C [15]: 101%; viability, T/C [16]: 101%; viability, T/C [17]: 95.7%; viability, T/C [18]: 79.7%; viability, T/C [21]: 89.3%; viability, T/C [22]: 89.7%; viability, T/C [23]: 88.8%; viability, T/C [24]: 73.3%; viability, T/C [27]: 89.8%; viability, T/C [28]: 88.2%; viability, T/C [29]: 83.6%; viability, T/C [30]: 69.6%
4 | O=C(C=Cc1cccc(S(=O)(=O)Nc2ccccc2)c1)NO + Cc1ccccc1N=Nc1ccc(NC(=O)c2ccnn2C)c(C)c1 | 1200 | 1340 | 1280 | 1130 | 1540 | 99.8 | 113 | 87 | 50.8 | 28.4 | 4.1 | 106 | 92.7 | 91.9 | 93.9 | 107 | 96.4 | 90.5 | 86.2 | 83.2 | viability, T/C [10]: 57.1%; viability, T/C [11]: 24.9%; viability, T/C [12]: 4.53%; viability, T/C [15]: 91.7%; viability, T/C [16]: 53.2%; viability, T/C [17]: 27.7%; viability, T/C [18]: 6.45%; viability, T/C [21]: 77.7%; viability, T/C [22]: 51.4%; viability, T/C [23]: 27.1%; viability, T/C [24]: 5.72%; viability, T/C [27]: 79.8%; viability, T/C [28]: 61%; viability, T/C [29]: 30.9%; viability, T/C [30]: 7.96%
